Experiment [1] relates to DU-145 cells. Description: Intracellular active oxygen (ROS) production, H2DCFDA, DU-145 cells. It counts as cell-based, human. The settings on record: DHMBA 1, 10, 100, and 1000 μM, 24 hours. The protocol: The intracellular active oxygen (reactive oxygen species: ROS) was measured using an ROS measurement kit (MAK144-1 Kit, Sigma-Aldrich) using pro-fluorescent substrate H2DCFDA. The PC-3 and DU-145 cells (the cell number of 2.5×10^4/per well, in 0.1 ml of a culture fluid per hole using a 96-hole plate) were cultured in a DMEM culture fluid (containing 10% of FBS, 1% of P/S, and 1% of fungizone) containing the DHMBA (0.1, 1, 10, 100, or 1000 μM) under 5% of CO2, at 37° C., for 24 hours. After the culture, the cells were washed with PBS, 0.1 ml and 25 μM of an H2DCFDA solution was added, and incubation was performed for 45 minutes. Afterwards, the cells were washed with PBS, and as the amount of active oxygen produced in the cells, fluorescence intensity was measured using a fluorescence measurement plate reader at a wavelength Ex/Em=485/535 nm.
The PC-3 and DU-145 cells (2.5×10^4/0.1 ml of a culture fluid per hole using a 96-hole plate) were cultured under 5% of CO2, at 37° C., for 24 hours in a DMEM culture fluid (containing 10% of FBS, 1% of P/S, and 1% of fungizone) containing the DHMBA (0.1, 1, 10, 100, or 1000 μM). […] After the cells were washed with PBS, a fluorescence intensity of the cells was measured using a fluorescence measurement plate reader at a wavelength Ex/Em=485/535 nm. […]

The test system of experiment [2] is DU-145 cells. Description: Cell invasion, Transwell chambers with Matrigel, DU-145 cells. It counts as cell-based, human. The note with it: DHMBA 1, 10, or 100 μM, 24 hours. As for the experimental part: The cell invasion activity of the prostate cancer PC-3 and DU-145 cells was measured using Transwell chambers (the catalogue number CLS3464-48EA of Corning, Life Sciences, USA). A chamber was placed in each well of the 24-hole plate. 50 μl of Matrigel (Corning Life Sciences, Cat. No. 356230, USA) was added to the upper surface of the chambers. After drying the gel, 500 μl of a suspension of the PC-3 or DU-145 cells (the cell number of 2.5×10^4/ml, the DMEM not containing FBS) was added to the upper surface of the gel. This cell suspension contained the DHMBA (0, 1, 10, or 100 μM). After the addition of the cell suspension to the chambers, it was incubated for one hour to cause the cells to adhere. 0.75 ml of the culture fluid not containing the FBS and a culture fluid containing 10% of FBS were added to the lower surface of the chambers. The cells on the plate were cultured under 5% of CO2, 95% of air, at 37° C., for 24 hours. […] After the drying, the number of the stained cells was counted by the microscope (Olympus MTV-3, Olympus Corporation, Tokyo, Japan). […]
The cell invasion activities of the prostate cancer PC-3 and DU-145 cells were measured using the Transwell chambers. […] After the drying, the number of the stained cells was counted by the microscope (Olympus MTV-3, Olympus Corporation, Tokyo, Japan). […]

Consider `COc1c(O)cc(CO)cc1O` [DHMBA, 3,5-dihydroxy-4-methoxybenzyl alcohol], for which the “amount of intracellular active oxygen production” value in experiment [1] is recorded as “significant inhibition”. Further, the invasion entry in experiment [2] is on record as “significantly inhibited”.
